Assay results as given in US6472391B2, “Nitrogen-containing heterocyclic compounds” (Millennium Pharmaceuticals, Inc., priority 1996, dated 2002).

Structure (SMILES)	melting point
COc1cc2ncnc(N3CCN(C(=O)Nc4ccc(C(=O)C(F)(F)F)cc4)CC3)c2cc1OC [Compound 243, 4-(6,7-Dimethoxy-4-quinazolinyl)-N-(4-trifluoroacetylphenyl)-1-piperazinecarboxamide]	144 to 146 °C
CCCC(=O)c1ccc(NC(=S)N2CCN(c3ncnc4cc(OC)c(OC)cc34)CC2)cc1 [Compound 244, N-(4-Butyrylphenyl)-4-(6,7-dimethoxy-4-quinazolinyl)-1-piperazinethiocarboxamide]	218 to 219 °C
COc1cc2ncnc(N3CCN(C(=O)Nc4ccc(C(=O)c5ccccc5)cc4)CC3)c2cc1OC [Compound 245, N-(4-Benzoylphenyl)-4-(6,7-dimethoxy-4-quinazolinyl)-1-piperazinecarboxamide]	240 to 241 °C
CCOC(=O)c1cccc(NC(=O)N2CCN(c3ncnc4cc(OC)c(OC)cc34)CC2)c1 [Compound 248, 4-(6,7-Dimethoxy-4-quinazolinyl)-N-(3-ethoxycarbonylphenyl)-1-piperazinecarboxamide]	187 to 188 °C
COC(=O)c1ccc(NC(=S)N2CCN(c3ncnc4cc(OC)c(OC)cc34)CC2)cc1 [Compound 249, 4-(6,7-Dimethoxy-4-quinazolinyl)-N-(4-methoxycarbonylphenyl)-1-piperazinethiocarboxamide]	208 to 209 °C
COc1cc2ncnc(N3CCN(C(=O)Nc4ccc(S(C)(=O)=O)cc4)CC3)c2cc1OC [Compound 251, 4-(6,7-Dimethoxy-4-quinazolinyl)-N-(4-mesylphenyl)-1-piperazinecarboxamide]	266 to 269 °C
COc1cc2ncnc(N3CCN(C(=O)NCc4ccco4)CC3)c2cc1OC [Compound 256, 4-(6,7-Dimethoxy-4-quinazolinyl)-N-furfuryl-1-piperazinecarboxamide]	168 to 170 °C
COc1cc2ncnc(N3CCN(C(=O)Nc4ccsc4)CC3)c2cc1OC [Compound 257, 4-(6,7-Dimethoxy-4-quinazolinyl)-N-(3-thienyl)-1-piperazinecarboxamide]	239 to 241 °C
COc1cc2ncnc(N3CCN(C(=O)NCc4ccsc4)CC3)c2cc1OC [Compound 258, 4-(6,7-Dimethoxy-4-quinazolinyl)-N-(3-thienylmethyl)-1-piperazinecarboxamide]	178 to 179 °C
COc1cc2ncnc(N3CCN(C(=O)NCc4cccs4)CC3)c2cc1OC [Compound 259, 4-(6,7-Dimethoxy-4-quinazolinyl)-N-(2-thienylmethyl)-1-piperazinecarboxamide]	168 to 170 °C
COC(=O)c1sccc1NC(=S)N1CCN(c2ncnc3cc(OC)c(OC)cc23)CC1 [Compound 260, 4-(6,7-Dimethoxy-4-quinazolinyl)-N-(2-methoxycarbonyl-3-thienyl)-1-piperazinethiocarboxamide]	226 to 228 °C
COC(=O)c1scc(C)c1NC(=S)N1CCN(c2ncnc3cc(OC)c(OC)cc23)CC1 [Compound 261, 4-(6,7-Dimethoxy-4-quinazolinyl)-N-(2-methoxycarbonyl-4-methyl-3-thienyl)-1-piperazinethiocarboxamide]	113 to 116 °C
COc1cc2ncnc(N3CCN(C(=S)Nc4ccccn4)CC3)c2cc1OC [Compound 262, 4-(6,7-Dimethoxy-4-quinazolinyl)-N-(2-pyridyl)-1-piperazinethiocarboxamide]	208 to 210 °C
COc1cc2ncnc(N3CCN(C(=O)Nc4cccnc4)CC3)c2cc1OC [Compound 265, 4-(6,7-Dimethoxy-4-quinazolinyl)-N-(3-pyridyl)-1-piperazinecarboxamide]	208 to 209 °C
COc1cc2ncnc(N3CCN(C(=O)NCc4cccnc4)CC3)c2cc1OC [Compound 266, 4-(6,7-Dimethoxy-4-quinazolinyl)-N-(3-picolyl)-1-piperazinecarboxamide]	188 to 189 °C
COc1cc2ncnc(N3CCN(C(=O)Nc4ccncc4)CC3)c2cc1OC [Compound 267, 4-(6,7-Dimethoxy-4-quinazolinyl)-N-(4-pyridyl)-1-piperazinecarboxamide]	141 to 143 °C
COc1cc2ncnc(N3CCN(C(=S)Nc4ccncc4)CC3)c2cc1OC [Compound 268, 4-(6,7-Dimethoxy-4-quinazolinyl)-N-(4-pyridyl)-1-piperazinethiocarboxamide]	218 to 220 °C
COc1cc2ncnc(N3CCN(C(=S)NCc4ccncc4)CC3)c2cc1OC [Compound 270, 4-(6,7-Dimethoxy-4-quinazolinyl)-N-(4-picolyl)-1-piperazinethiocarboxamide]	236 to 239 °C
COc1cc2ncnc(N3CCN(C(=O)Nc4ccc(C)nc4)CC3)c2cc1OC [Compound 271, 4-(6,7-Dimethoxy-4-quinazolinyl)-N-(2-methyl-5-pyridyl)-1-piperazinecarboxamide]	240 to 241 °C
COc1cc2ncnc(N3CCN(C(=O)Nc4ccc(Cl)nc4)CC3)c2cc1OC [Compound 272, N-(2-Chloro-5-pyridyl)-4-(6,7-dimethoxy-4-quinazolinyl)-1-piperazinecarboxamide]	238 to 240 °C

Structure (SMILES)	melting point
COc1cc2ncnc(N3CCN(C(=O)Nc4ccc(C#N)nc4)CC3)c2cc1OC [Compound 273, N-(2-Cyano-5-pyridyl)-4-(6,7-dimethoxy-4-quinazolinyl)-1-piperazinecarboxamide]	275 to 277 °C
COc1cc2ncnc(N3CCN(C(=S)NCc4ncc(C(F)(F)F)cc4Cl)CC3)c2cc1OC [Compound 276, N-(3-Chloro-5-trifluoromethyl-2-picolyl)-4-(6,7-dimethoxy-4-quinazolinyl)-1-piperazinethiocarboxamide]	182 to 183 °C
COc1cc2ncnc(N3CCN(C(=S)Nc4cc(O)nc(O)n4)CC3)c2cc1OC [Compound 277, N-(2,6-Dihydroxy-4-pyrimidinyl)-4-(6,7-dimethoxy-4-quinazolinyl)-1-piperazinethiocarboxamide]	283 to 285 °C
COc1cc2ncnc(N3CCN(C(=O)NCc4cnc(C)cn4)CC3)c2cc1OC [Compound 278, 4-(6,7-Dimethoxy-4-quinazolinyl)-N-(5-methyl-2-pyrazinylmethyl)-1-piperazinecarboxamide]	202 to 204 °C
COc1cc2ncnc(N3CCN(C(=S)NC4CCOC4=O)CC3)c2cc1OC (stereo not shown) [Compound 279, 4-(6,7-Dimethoxy-4-quinazolinyl)-N-(2,3,4,5-tetrahydro-2-oxo-3-furyl)-1-piperazinethiocarboxamide]	147 to 148 °C
COc1cc2ncnc(N3CCN(C(=O)Nc4ccc(-n5cccc5)cc4)CC3)c2cc1OC [Compound 280, 4-(6,7-Dimethoxy-4-quinazolinyl)-N-[4-(1-pyrrolyl)phenyl]-1-piperazinecarboxamide]	224 to 226 °C
COc1cc2ncnc(N3CCN(C(=S)Nc4ccc(Cc5ccncc5)cc4)CC3)c2cc1OC [Compound 282, 4-(6,7-Dimethoxy-4-quinazolinyl)-N-[4-(4-picolyl)phenyl]-1-piperazinethiocarboxamide]	198 to 200 °C
S=C(NCc1ccccc1)N1CCN(c2ncnc3ccccc23)CC1 [Compound 285, N-Benzyl-4-(4-quinazolinyl)-1-piperazinethiocarboxamide]	68 to 70 °C
S=C(NCc1cccnc1)N1CCN(c2ncnc3ccccc23)CC1 [Compound 286, N-(3-Picolyl)-4-(4-quinazolinyl)-1-piperazinethiocarboxamide]	193 to 194 °C
Cc1cccc2ncnc(N3CCN(C(=O)Nc4ccc(Oc5ccccc5)cc4)CC3)c12 [Compound 287, 4-(5-Methyl-4-quinazolinyl)-N-(4-phenoxyphenyl)-1-piperazinecarboxamide]	187 to 188 °C
Cc1cccc2ncnc(N3CCN(C(=S)NCc4ccccc4)CC3)c12 [Compound 288, N-Benzyl-4-(5-methyl-4-quinazolinyl)-1-piperazinethiocarboxamide]	165 to 167 °C
Cc1ccc2ncnc(N3CCN(C(=O)Nc4ccc([N+](=O)[O-])cc4)CC3)c2c1 [Compound 293, 4-(6-Methyl-4-quinazolinyl)-N-(4-nitrophenyl)-1-piperazinecarboxamide]	126 to 129 °C
Cc1ccc2ncnc(N3CCN(C(=S)NCc4cccnc4)CC3)c2c1 [Compound 295, 4-(6-Methyl-4-quinazolinyl)-N-(3-picolyl)-1-piperazinethiocarboxamide]	128 to 129 °C
CC(C)c1ccc(NC(=O)N2CCN(c3ncnc4ccc(F)cc34)CC2)cc1 [Compound 296, 4-(6-Fluoro-4-quinazolinyl)-N-(4-isopropylphenyl)-1-piperazinecarboxamide]	139 to 140 °C
CC(=O)c1ccc(NC(=O)N2CCN(c3ncnc4ccc(F)cc34)CC2)cc1 [Compound 298, N-(4-Acetylphenyl)-4-(6-fluoro-4-quinazolinyl)-1-piperazinecarboxamide]	184 to 185 °C
Fc1ccc2ncnc(N3CCN(C(=S)NCc4cccnc4)CC3)c2c1 [Compound 299, 4-(6-Fluoro-4-quinazolinyl)-N-(3-picolyl)-1-piperazinethiocarboxamide]	170 to 172 °C
CC(C)c1ccc(NC(=O)N2CCN(c3ncnc4ccc(Cl)cc34)CC2)cc1 [Compound 300, 4-(6-Chloro-4-quinazolinyl)-N-(4-isopropylphenyl)-1-piperazinecarboxamide]	192 to 193 °C
O=C(Nc1ccc(Oc2ccccc2)cc1)N1CCN(c2ncnc3ccc(Cl)cc23)CC1 [Compound 301, 4-(6-Chloro-4-quinazolinyl)-N-(4-phenoxyphenyl)-1-piperazinecarboxamide]	116 to 120 °C
CC(=O)c1ccc(NC(=O)N2CCN(c3ncnc4ccc(Cl)cc34)CC2)cc1 [Compound 302, N-(4-Acetylphenyl)-4-(6-chloro-4-quinazolinyl)-1-piperazinecarboxamide]	207 to 208 °C
O=C(Nc1ccc(Oc2ccccc2)cc1)N1CCN(c2ncnc3ccc(Br)cc23)CC1 [Compound 303, 4-(6-Bromo-4-quinazolinyl)-N-(4-phenoxyphenyl)-1-piperazinecarboxamide]	169 to 170 °C
